pEC50: −log10 of the molar value.

The experiment deals with HBV. Kind of experiment: HBV-DNA Antiviral Assay Using HepG2.117 Cells (intracellular HBV DNA by qPCR). It counts as cell-based, hepatitis B virus (genotype D). The note with it: Hepatitis B virus, HepG2.117. In outline:
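Endpoint: qPCR copy number of intracellular HBV DNA after 3-day compound exposure, with inhibition set relative to the 2% DMSO control. The cells were doxycycline-free HepG2.117 carrying a Tet-off genotype D genome, dosed at nine 4-fold dilutions. A duplicate plate gave ATP-based viability (CC50).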
(Quantitative PCR measures a nucleic acid by following its amplification.)

For the molecule `COc1cccc(C)c1CNC(=O)c1c2n(c(=O)n1-c1ccc(OCC(F)(F)F)cc1)CCN(C(=O)c1ccc(Br)c(Cl)c1)C2` [Example 259, 7-(4-bromo-3-chloro-benzoyl)-N-[(2-methoxy-6-methyl-phenyl)methyl]-3-oxo-2-[4-(2,2,2-trifluoroethoxy)phenyl]-6,8-dihydro-5H-imidazo[1,5-a]pyrazine-1-carboxamide], the pEC50 was 6.30 to 7.00.

For `C[C@H](NC(=O)c1c2n(c(=O)n1-c1ccc(OC3CC3)cc1)CCN(C(=O)c1ccc(Br)c(Cl)c1)C2)c1ccc(OC(F)(F)F)cc1F` (stereo in doubt) [Example 291, 7-(4-bromo-3-chloro-benzoyl)-2-[4-(cyclopropoxy)phenyl]-3-oxo-N-[rac-(1S)-1-[2-fluoro-4-(trifluoromethoxy)phenyl]ethyl]-6,8-dihydro-5H-imidazo[1,5-a]pyrazine-1-carboxamide], the pEC50 is 5.30 to 6.30.

Consider `CC(C)Oc1ccc(-n2c(C(=O)NCc3ccc(CO)cc3)c3n(c2=O)CCN(C(=O)c2ccc(Br)c(Cl)c2)C3)cc1` [Example 221, 7-(4-bromo-3-chloro-benzoyl)-N-[[4-(hydroxymethyl)phenyl]methyl]-2-(4-isopropoxyphenyl)-3-oxo-6,8-dihydro-5H-imidazo[1,5-a]pyrazine-1-carboxamide], for which the negative-log EC50 (pEC50) was less than 5.30.

On to `COc1ccc(-n2c(C(=O)N[C@@H](c3ccccc3)C3CC3)c3n(c2=O)CCN(C(=O)c2ccc(Br)c(Cl)c2)C3)cc1` (racemic) [Example 149, 7-(4-bromo-3-chloro-benzoyl)-2-(4-methoxyphenyl)-3-oxo-N-[rac-(R)-cyclopropyl(phenyl)methyl]-6,8-dihydro-5H-imidazo[1,5-a]pyrazine-1-carboxamide], for which the pEC50 is 5.30 to 6.30.

`CC1(C)C(=O)Nc2ccc(-n3c(C(=O)NCc4ccccc4)c4n(c3=O)CCN(C(=O)c3ccc(Br)c(Cl)c3)C4)cc21` [Example 397, N-benzyl-7-(4-bromo-3-chloro-benozyl)-2-(3,3-dimethyl-2-oxo-indolin-5-yl)-3-oxo-6,8-dihydro-5H-imidazo[1,5-a]pyrazine-1-carboxamide] had a pEC50 of 5.30 to 6.30. Under `C[C@H](NC(=O)c1c2n(c(=O)n1-c1ccc(OCC(F)(F)F)cc1)CCN(C(=O)c1ccc(Br)c(Cl)c1)C2)c1ccc(OCC(N)=O)cc1F` (stereo in doubt) [Example 320, 7-(4-bromo-3-chloro-benzoyl)-3-oxo-N-[rac-(1S)-1-[4-(2-amino-2-oxo-ethoxy)-2-fluoro-phenyl]ethyl]-2-[4-(2,2,2-trifluoroethoxy)phenyl]-6,8-dihydro-5H-imidazo[1,5-a]pyrazine-1-carboxamide] stands 6.30 to 7.00; under `COc1ccc(CNC(=O)c2c3n(c(=O)n2-c2ccc(OCC(F)(F)F)cc2)CCN(C(=O)c2ccc(Br)c(Cl)c2)C3)c(C)c1` [Example 246, 7-(4-bromo-3-chloro-benzoyl)-N-[(4-methoxy-2-methyl-phenyl)methyl]-3-oxo-2-[4-(2,2,2-trifluoroethoxy)phenyl]-6,8-dihydro-5H-imidazo[1,5-a]pyrazine-1-carboxamide], 6.30 to 7.00. In the case of `O=C(NCc1ccccc1-c1cccnn1)c1c2n(c(=O)n1-c1ccc(OC3CC3)cc1)CCN(C(=O)c1ccc(Br)c(Cl)c1)C2` [Example 387, 7-(4-bromo-3-chloro-benozyl)-2-[4-(cyclopropoxy)phenyl]-3-oxo-N-[(2-pyridazin-3-ylphenyl)methyl]-6,8-dihydro-5H-imidazo[1,5-a]pyrazine-1-carboxamide], the negative-log EC50 (pEC50) is greater than 7.00. Molecule `C[C@@H](NC(=O)c1c2n(c(=O)n1-c1ccc(OC3CC3)cc1)CCN(C(=O)c1ccc(Br)c(Cl)c1)C2)c1ccc(OC(F)F)cc1F` (racemic) [Example 313, 7-(4-bromo-3-chloro-benzoyl)-2-[4-(cyclopropoxy)phenyl]-3-oxo-N-[rac-(1R)-1-[4-(difluoromethoxy)-2-fluoro-phenyl]ethyl]-6,8-dihydro-5H-imidazo[1,5-a]pyrazine-1-carboxamide] gave a pEC50 of 6.30 to 7.00. `C[C@H](NC(=O)c1c2n(c(=O)n1-c1ccc(-n3cccn3)cc1)CCN(C(=O)c1ccc(Br)c(Cl)c1)C2)c1ccccc1F` (stereo in doubt) [Example 409, 7-(4-bromo-3-chloro-benzoyl)-3-oxo-2-(4-pyrazol-1-ylphenyl)-N-[rac-(1S)-1-(2-fluorophenyl)ethyl]-6,8-dihydro-5H-imidazo[1,5-a]pyrazine-1-carboxamide] had a pEC50 of 5.30 to 6.30. Consider `Cc1ccn(-c2ccc(-n3c(C(=O)NCc4ccccc4)c4n(c3=O)CCN(C(=O)c3ccc(Br)c(Cl)c3)C4)cc2)n1` [Example 455, N-benzyl-7-(4-bromo-3-chloro-benzoyl)-2-[4-(3-methylpyrazol-1-yl)phenyl]-3-oxo-6,8-dihydro-5H-imidazo[1,5-a]pyrazine-1-carboxamide], for which the pEC50 is 6.30 to 7.00.

In the case of `CCOC(=O)Cc1ccc(CNC(=O)c2c3n(c(=O)n2-c2ccc(OC)cc2)CCN(C(=O)c2ccc(Br)c(Cl)c2)C3)cc1` [Example 196, ethyl 2-[4-[[[7-(4-bromo-3-chloro-benzoyl)-2-(4-methoxyphenyl)-3-oxo-6,8-dihydro-5H-imidazo[1,5-a]pyrazine-1-carbonyl]amino]methyl]phenyl]acetate], the pEC50 was less than 5.30.

Turning to `O=C(NCc1ccccc1)c1c2n(c(=O)n1-c1ccc(-n3cccn3)cc1)CCN(C(=O)c1ccc(Br)c(Cl)c1)C2` [Example 271, N-benzyl-7-(4-bromo-3-chloro-benzoyl)-3-oxo-2-(4-pyrazol-1-ylphenyl)-6,8-dihydro-5H-imidazo[1,5-a]pyrazine-1-carboxamide], the pEC50 is 6.30 to 7.00. For `COc1ccc(-n2c(C(=O)N[C@@H](C)c3ccccc3)c3n(c2=O)CCN(C(=O)c2ccc(Cl)c(Cl)c2)C3)cc1` (stereo in doubt) [Example 70, 7-(3,4-dichlorobenzoyl)-2-(4-methoxyphenyl)-3-oxo-N-[rac-(1S)-1-phenylethyl]-6,8-dihydro-5H-imidazo[1,5-a]pyrazine-1-carboxamide], the negative logarithm of the EC50 (pEC50) is 5.30 to 6.30. `Cn1cnc2c(CNC(=O)c3c4n(c(=O)n3-c3ccc(OCC(F)(F)F)cc3)CCN(C(=O)c3ccc(Br)c(Cl)c3)C4)cccc21` [Example 400, 7-(4-bromo-3-chloro-benzoyl)-N-[(1-methylbenzimidazol-4-yl)methyl]-3-oxo-2-[4-(2,2,2-trifluoroethoxy)phenyl]-6,8-dihydro-5H-imidazo[1,5-a]pyrazine-1-carboxamide]: the pEC50 was 6.30 to 7.00. To `O=C(NCc1ccccc1-n1cccn1)c1c2n(c(=O)n1-c1ccc(OC3CC3)cc1)CCN(C(=O)c1ccc(Br)c(Cl)c1)C2` [Example 457, 7-(4-bromo-3-chloro-benzoyl)-2-[4-(cyclopropoxy)phenyl]-3-oxo-N-[(2-pyrazol-1-ylphenyl)methyl]-6,8-dihydro-5H-imidazo[1,5-a]pyrazine-1-carboxamide] belongs greater than 7.00; to `O=C(NCc1ccccc1)c1c2n(c(=O)n1-c1ccc(OCC(F)F)cc1)CCN(C(=O)c1ccc(Br)c(Cl)c1)C2` [Example 260, N-benzyl-7-(4-bromo-3-chloro-benzoyl)-2-[4-(2,2-difluoroethoxy)phenyl]-3-oxo-6,8-dihydro-5H-imidazo[1,5-a]pyrazine-1-carboxamide], 5.30 to 6.30. `COc1ccc(CNC(=O)c2c3n(c(=O)n2-c2ccc(OC4CC4)cc2)CCN(C(=O)c2ccc(Br)c(Cl)c2)C3)c(F)c1` [Example 460, 7-(4-bromo-3-chloro-benzoyl)-2-[4-(cyclopropoxy)phenyl]-N-[(2-fluoro-4-methoxy-phenyl)methyl]-3-oxo-6,8-dihydro-5H-imidazo[1,5-a]pyrazine-1-carboxamide] gave a pEC50 of 6.30 to 7.00. For `COc1ccc(CNC(=O)c2c3n(c(=O)n2-c2ccc(-n4cccn4)cc2)CCN(C(=O)c2ccc(Br)c(Cl)c2)C3)c(F)c1` [Example 459, 7-(4-bromo-3-chloro-benzoyl)-N-[(2-fluoro-4-methoxy-phenyl)methyl]-3-oxo-2-(4-pyrazol-1-ylphenyl)-6,8-dihydro-5H-imidazo[1,5-a]pyrazine-1-carboxamide], the pEC50 is 6.30 to 7.00.

In the case of `O=C(NCc1ccccc1-c1ccccn1)c1c2n(c(=O)n1-c1ccc(OC3CC3)cc1)CCN(C(=O)c1ccc(Br)c(Cl)c1)C2` [Example 369, 7-(4-bromo-3-chloro-benozyl)-2-[4-(cyclopropoxy)phenyl]-3-oxo-N-[[2-(2-pyridyl)phenyl]methyl]-6,8-dihydro-5H-imidazo[1,5-a]pyrazine-1-carboxamide], the pEC50 was greater than 7.00. For `COc1ccc(-n2c(C(=O)NCc3ccccc3)c3n(c2=O)CCN(C(=O)c2ccc(Br)c(Cl)c2)C3)nc1` [Example 110, N-benzyl-7-(4-bromo-3-chloro-benzoyl)-2-(5-methoxy-2-pyridyl)-3-oxo-6,8-dihydro-5H-imidazo[1,5-a]pyrazine-1-carboxamide], the pEC50 was 5.30 to 6.30. `COc1ccc(-n2c(C(=O)NCc3ccccc3)c3n(c2=O)CCN(C(=O)c2ccc(Cl)c(Cl)c2)C3)c(F)c1` [Example 79, N-benzyl-7-(3,4-dichlorobenzoyl)-2-(2-fluoro-4-methoxy-phenyl)-3-oxo-6,8-dihydro-5H-imidazo[1,5-a]pyrazine-1-carboxamide] showed a pEC50 of 5.30 to 6.30. As to `COc1ccc(-n2c(C(=O)NCc3cccc(C#N)c3)c3n(c2=O)CCN(C(=O)c2ccc(Cl)c(Cl)c2)C3)cc1` [Example 63, N-[(3-cyanophenyl)methyl]-7-(3,4-dichlorobenzoyl)-2-(4-methoxyphenyl)-3-oxo-6,8-dihydro-5H-imidazo[1,5-a]pyrazine-1-carboxamide], the pEC50 was 5.30 to 6.30. Take `COc1ccc(-n2c(C(=O)NCc3ccc4occc4c3)c3n(c2=O)CCN(C(=O)c2ccc(Cl)c(Cl)c2)C3)cc1` [Example 66, N-(benzofuran-5-ylmethyl)-7-(3,4-dichlorobenzoyl)-2-(4-methoxyphenyl)-3-oxo-6,8-dihydro-5H-imidazo[1,5-a]pyrazine-1-carboxamide]: the negative logarithm of the EC50 (pEC50) is 5.30 to 6.30.

What is called pEC50 is the EC50 on a negative log10 scale, so that one unit is a factor of ten.
